Results: article PMC3733081 (Journal of chemical information and modeling, 2013)
Read-outs that look alike come from different tables or passages of the source.

Legend:
n-hexadecane/1-octanol = details: for logP C16/O: calculated as logPC16/W-logPO/W
n-hexadecane/water = details: for P (n-hexadecane/water partition coefficient): shake-flask, P=l1/l2, ± error
[1] = value without superscript a: measured and listed in Table S1; cited from earlier work
[2] = value without superscript b; ref ClogP database; cited from earlier work
[3] = 25 °C, shaking at 25 rpm, fit of eqs 1 and 2

| Compound | logP C16/O (n-hexadecane/1-octanol) | P (n-hexadecane/water partition coefficient) (n-hexadecane/water; 25 °C) | l1 (rate parameter of transport from water to C16) (n-hexadecane/water; [3]) | l2 (rate parameter of transport from C16 to water) (n-hexadecane/water; [3]) | also measured |
| --- | --- | --- | --- | --- | --- |
| CCCCCCCCO [1-octanol] | −1.310 |  |  |  |  |
| Oc1ccccc1-c1ccccc1 [2-phenylphenol] |  | (3.536±1.329)×10^1 | (3.699±0.935)×10^−1 cm/h | (1.046±0.291)×10^−2 cm/h |  |
| NC(=O)Cc1ccccc1 [2-phenylacetamide] |  |  | (1.624±0.359)×10^−2 cm/h | (2.771±0.857)×10^−1 cm/h |  |
| Cc1c[nH]c2ccccc12 [3-methylindole] | −1.360 |  |  |  | logP C16/W [1]: 0.810 |
| OCc1ccccc1 [benzylalcohol] | −1.530 |  |  |  | logP C16/W [1]: −0.430 |
| CC(C)(C)CC(C)(C)c1ccc(O)cc1 [4-tert-octylphenol] | −1.665 |  |  |  |  |
| Cn1c2ccccc2c2ccccc21 [N-methylcarbazole] | 0.799 |  |  |  | logP O/W [2]: 3.990 |
| c1ccc2ncccc2c1 [quinoline] |  |  | (3.766±0.198)×10^−1 cm/h | (3.566±1.200)×10^−2 cm/h |  |
| Nc1ccc([N+](=O)[O-])cc1 [4-nitroaniline] |  | (1.890±0.656)×10^−1 | (1.192±0.406)×10^−1 cm/h | (6.295±0.407)×10^−1 cm/h |  |
| CCC(O)c1ccccc1 (stereo not shown) [1-phenyl-1-propanol] |  | 3.153±0.630 | (3.864±0.154)×10^−1 cm/h | (1.226±0.240)×10^−1 cm/h |  |
| Cn1c(=O)c2c(ncn2C)n(C)c1=O [caffeine, reference compound] |  |  | (5.485±0.851)×10^−2 cm/h | (2.309±0.430)×10^−1 cm/h |  |
| CCCCCO [1-pentanol] | −1.745 |  |  |  |  |
| CCc1ccccc1 [ethylbenzene] | 0.050 |  |  |  |  |
| CCCCCCCCCC [n-decane] | 1.030 |  |  |  | logP C16/W [1]: 7.010 |
| NCCc1c2ccccc2cc2ccccc12 [9-anthracene-ethanamine] | −1.549 |  |  |  |  |
| CCCCCCCO [1-heptanol] | −1.655 |  |  |  |  |
| CCOC(=O)c1cccnc1 [ethylnicotinate] |  | 3.583±0.983 | (5.074±1.031)×10^−1 cm/h | (1.416±0.261)×10^−1 cm/h |  |
| CN[C@@H](C)[C@H](O)c1ccccc1 [ephedrine, reference compound] | −1.770 |  |  |  | logP C16/W [1]: −0.840 |
| FC(F)OC(Cl)C(F)(F)F (stereo not shown) [isofluorane, reference compound] | −0.410 |  |  |  |  |
| c1ccc2c(c1)[nH]c1ccccc12 [9H-carbazole] | −0.851 |  |  |  |  |
| O=C(O)CCCc1c[nH]c2ccccc12 [1H-indole-3-butanoic acid] | −3.531 |  |  |  |  |
| CNC(=O)c1ccccc1 [N-methylbenzamide] |  | (6.450±1.180)×10^−1 | (4.982±0.860)×10^−1 cm/h | (7.724±0.467)×10^−1 cm/h |  |
| C=CCc1ccccc1O [2-allylphenol] |  |  | (2.286±0.857)×10^−1 cm/h | (3.211±0.685)×10^−2 cm/h |  |
| Nc1ccccc1 [aniline] |  | (7.860±1.639)×10^−1 | (1.502±0.286)×10^−1 cm/h | (1.912±0.162)×10^−1 cm/h |  |
| Cc1ccc(C=CC=CC=Cc2ccccc2)cc1 [1-methyl-4-(6-phenyl-1,3,5-hexatrien-1-yl)-benzene] | 0.193 |  |  |  |  |
| FC(F)(F)C(Cl)Br (stereo not shown) [halothane, reference compound] | −0.200 |  |  |  | logP C16/W [1]: 2.100 |

| Compound | logP C16/O (n-hexadecane/1-octanol) | P (n-hexadecane/water partition coefficient) (n-hexadecane/water; 25 °C) | l1 (rate parameter of transport from water to C16) (n-hexadecane/water; [3]) | l2 (rate parameter of transport from C16 to water) (n-hexadecane/water; [3]) | also measured |
| --- | --- | --- | --- | --- | --- |
| Cc1cc(O)ccc1Cl [4-chloro-3-methylphenol] |  | 1.651±0.701 | (1.491±0.611)×10^−1 cm/h | (9.029±1.001)×10^−2 cm/h |  |
| CC(C)c1c(O)ccc2c1CC[C@H]1C(C)(C)CCC[C@]21C [totarol] | −0.924 |  |  |  |  |
| C(=CC=Cc1ccccc1)C=Cc1ccccc1 [1,6-diphenyl-1,3,5-hexatriene] | 0.188 |  |  |  |  |
| Cn1ccc2ccccc21 [N-methylindole] | 0.969 |  |  |  |  |
| FC1(F)CCC1(F)Cl (stereo not shown) [1-chloro-1,2,2-trifluorocyclobutane] | 1.436 |  |  |  |  |
| c1ccc2[nH]ccc2c1 [indole] | −0.920 | 5.660±0.633 | (6.291±0.522)×10^−1 cm/h | (1.111±0.083)×10^−1 cm/h |  |
| CCCCCc1cc(O)c2c(c1)OC(C)(C)[C@@H]1CC=C(C)C[C@@H]21 [Δ8-tetrahydrocannabinol] | −2.139 |  |  |  | logP O/W [2]: 7.410 |
| Cc1ccc(Cl)cc1[N+](=O)[O-] [4-chloro-2-nitrotoluene] |  | (8.660±3.938)×10^2 | (2.168±0.605)×10^2 cm/h | (2.504±0.899)×10^−1 cm/h |  |
| O=CNc1ccccc1 [formanilide] |  | 2.900±0.955)×10^−1 | (1.532±0.501)×10^−1 cm/h | (5.283±0.213)×10^−1 cm/h |  |
| OCc1c2ccccc2cc2ccccc12 [9-anthracenemethanol] | −0.700 | (2.211±0.554)×10^2 | 1.565 ± 0.236 cm/h | (7.080±1.416)×10^−3 cm/h | logP O/W [2]: 3.040 |
| Cc1c2ccccc2cc2ccccc12 [9-methylanthracene] | −0.015 |  |  |  | logP O/W [2]: 5.070 |
| CC(C)(c1ccc(O)cc1)c1ccc(O)cc1 [bisphenol A] | −4.222 |  |  |  | logP C16/W [1]: −0.902 |
| c1ccncc1 [pyridine] |  |  |  |  | l1 (rate parameter of transport from water to C16) (n-hexadecane/water): (9.512±0.343)×10^−2 cm/h; l2 (rate parameter of transport from C16 to water) (n-hexadecane/water): (2.672±0.669)×10^−1 cm/h |
| C1=Cc2ccccc2C1 [1H-indene] | −0.078 |  |  |  | logP O/W [2]: 2.920 |
| O=C(O)Cc1c2ccccc2cc2ccccc12 [9-anthracene-acetic acid] | −2.570 |  |  |  |  |
| COc1ccccc1OC [1,2-dimethoxybenzene] |  | (2.723±1.352) ×10^1 | 1.171 ± 0.535 cm/h | (4.301±0.840)×10^−2 cm/h |  |
| CCCCCc1cc(OC)c2c(c1)OC(C)(C)C1CC=C(C)CC21 (stereo not shown) [methoxy-Δ8-tetrahydrocannabinol] | 0.027 |  |  |  | logP O/W [2]: 8.060 |
| Nc1cccc(Br)c1 [3-bromoaniline] |  | (1.107±0.106)×10^1 | (6.304±0.471)×10^−1 cm/h | (5.693±0.339)×10^−2 cm/h |  |
| CC(=O)Nc1ccccc1 [acetanilide] |  | (2.580±0.857)×10^−1 | (1.315±0.434)×10^−1 cm/h | (5.104±0.179)×10^−1 cm/h |  |
| O=C(c1ccccc1)c1ccc(Br)cc1 [4-bromobenzophenone] |  | (2.891±0.684)×10^2 | (1.054±0.026)×10^1 cm/h | (3.646±0.858)×10^−2 cm/h |  |
| O=[N+]([O-])c1ccccc1 [nitrobenzene] |  |  |  |  | l1 (rate parameter of transport from water to C16) (n-hexadecane/water): 1.162 ± 0.218 cm/h; l2 (rate parameter of transport from C16 to water) (n-hexadecane/water): (3.950±0.694)×10^−2 cm/h |
| O=C(c1ccccc1)c1ccc(Cl)cc1 [4-chlorobenzophenone] |  | (7.315±2.674)×10^2 | (1.102±0.216)×10^2 cm/h | (1.507±0.465)×10^−1 cm/h |  |
| O=C=O [carbon dioxide] |  |  |  |  | affinity for n-hexadecane versus 1-octanol (logPC16/W vs logPO/W, Figure 1) (n-hexadecane/1-octanol; small molecules plotted as crosses in Figure 1): not observed |
| O=C(O)CCc1ccc(C=CC=CC=Cc2ccccc2)cc1 [4-(6-phenyl-1,3,5-hexatrien-1-yl)-benzenepropanoic acid] | −2.702 |  |  |  |  |
| CCOC(=O)c1ccc(N)cc1 [benzocaine, reference compound] |  | 1.560±0.666 | (1.163±0.488)×10^−1 cm/h | (7.455±0.577)×10^−2 cm/h |  |
| O=C(O)CCCCCCCCCCn1c2ccccc2c2ccccc21 [11-(9-carbazole)-undecanoic acid] | −1.418 |  |  |  |  |
